System: angioedema in CSU patients
Experiment: Phase 2 CSU study: angioedema activity score over 7 days (AAS7)
Assay type: in vivo, human
Set-up: AAS7, Median / AAS7 Change from baseline, Median: scale not given here
Conditions: for Non-responder n (%), AAS7 = 0 / OR (95% CI) for rilzabrutinib vs. placebo, AAS7 = 0 / RRD (%) for rilzabrutinib vs. placebo (95% CI), AAS7 = 0 / Responder n (%), AAS7 = 0: outlier removed
Source text: The study comprises a 12 week, randomized, double-blind, placebo-controlled, multi-center, dose-ranging efficacy and safety phase, followed by a 40 week open label extension (OLE) phase (see FIG. 1). The study consists of three phases and an optional OLE phase. […] The weekly angioedema activity score (AAS7) was proposed as a tertiary endpoint. […] Patients were to complete the AAS using the e-diary. The e-diary was to be used once daily on the same time of each day recording of participant's answers to the angioedema activity score over 7 days (AAS7) questionnaire.

[1] = 400 mg TID, Week 8, omalizumab-naïve, angioedema at baseline
[2] = 400 mg TID, Week 9, ITT, angioedema at baseline
[3] = 400 mg TID, Week 9, omalizumab-naïve
[4] = 400 mg TID, Week 9, omalizumab-naïve, angioedema at baseline
[5] = 400 mg TID, Week 10, ITT, angioedema at baseline
[6] = 400 mg TID, Week 10, omalizumab-naïve
[7] = 400 mg TID, Week 10, omalizumab-naïve, angioedema at baseline
[8] = 400 mg TID, Week 11, ITT, angioedema at baseline
[9] = 400 mg TID, Week 11, omalizumab-naïve
[10] = 400 mg TID, Week 11, omalizumab-naïve, angioedema at baseline
[11] = 400 mg TID, Week 12, ITT, angioedema at baseline
[12] = 400 mg TID, Week 12, omalizumab-naïve
[13] = 400 mg TID, Week 12, omalizumab-naïve, angioedema at baseline
[14] = 400 mg TID, omalizumab-naïve population, angioedema at baseline
[15] = End of Study, 400 mg TID, Incomplete Responders with angioedema at baseline, both values imputed
[16] = Omalizumab-Naïve Population, 400 mg BID, End of Study
[17] = Omalizumab-Naïve Population, 400 mg BID, Week 1
[18] = Omalizumab-Naïve Population, 400 mg BID, Week 2
[19] = Omalizumab-Naïve Population, 400 mg BID, Week 3
[20] = Omalizumab-Naïve Population, 400 mg BID, Week 4
[21] = Omalizumab-Naïve Population, 400 mg BID, Week 5
[22] = Omalizumab-Naïve Population, 400 mg BID, Week 6
[23] = Omalizumab-Naïve Population, 400 mg BID, Week 7
[24] = Omalizumab-Naïve Population, 400 mg BID, Week 8
[25] = Omalizumab-Naïve Population, 400 mg BID, Week 9

CC(C)(C=C(C#N)C(=O)N1CCC[C@@H](n2nc(-c3ccc(Oc4ccccc4)cc3F)c3c(N)ncnc32)C1)N1CCN(C2COC2)CC1 [rilzabrutinib, (R)-2-[3-[4-amino-3-(2-fluoro-4-phenoxy-phenyl)pyrazolo[3,4-d]pyrimidin-1-yl]piperidine-1-carbonyl]-4-methyl-4-[4-(oxetan-3-yl)piperazin-1-yl]pent-2-enenitrile]
AAS7 = 0, OR (95% CI) for rilzabrutinib vs. placebo [1]: 0.690
AAS7 = 0, RRD (%) for rilzabrutinib vs. placebo (95% CI) [1]: −6.2 %
AAS7 Post-baseline Mean (SD) [1]: 12.20 (13.05)
Participants with AAS7 = 0, Responder n (%) [1]: 6 (26.1) n (%)
AAS7 % Change difference for rilzabrutinib vs. placebo LS Mean (95% CI) [2]: −34.54 (−64.85, −4.23) %
AAS7 Change difference for rilzabrutinib vs. placebo LS Mean (95% CI) [2]: −13.12 (−23.93, −2.31)
AAS7 Change from baseline LS Mean (SE) [2]: −42.57 (4.09)
AAS7 Post-baseline Mean (SD) [2]: 7.98 (11.59)
Non-responder n (%), AAS7 = 0 [3]: 15 (44.1) n (%)
OR (95% CI) for rilzabrutinib vs. placebo, AAS7 = 0 [3]: 1.155
RRD (%) for rilzabrutinib vs. placebo (95% CI), AAS7 = 0 [3]: 3.6 %
Responder n (%), AAS7 = 0 [3]: 19 (55.9) n (%)
AAS7 % Change difference for rilzabrutinib vs. placebo LS Mean (95% CI) [4]: −37.56 (−71.28, −3.83) %
AAS7 % Change from baseline LS Mean (SE) [4]: −84.73 (12.57) %
AAS7 = 0, Non-responder n (%) [4]: 13 (56.5) n (%)
AAS7 = 0, OR (95% CI) for rilzabrutinib vs. placebo [4]: 1.358
AAS7 = 0, RRD (%) for rilzabrutinib vs. placebo (95% CI) [4]: 6.9 %
AAS7 Post-baseline Mean (SD) [4]: 8.52 (12.19)
Participants with AAS7 = 0, Responder n (%) [4]: 10 (43.5) n (%)
AAS7 % Change difference for rilzabrutinib vs. placebo LS Mean (95% CI) [5]: −38.35 (−79.56, 2.86) %
AAS7 % Change from baseline LS Mean (SE) [5]: −87.33 (15.54) %
AAS7 Change difference for rilzabrutinib vs. placebo LS Mean (95% CI) [5]: −13.07 (−24.96, −1.18)
AAS7 Change from baseline LS Mean (SE) [5]: −43.40 (4.49)
AAS7 Post-baseline Mean (SD) [5]: 7.10 (9.58)
Non-responder n (%), AAS7 = 0 [6]: 16 (47.1) n (%)
RRD (%) for rilzabrutinib vs. placebo (95% CI), AAS7 = 0 [6]: 6.0 %
Responder n (%), AAS7 = 0 [6]: 18 (52.9) n (%)
AAS7 % Change from baseline LS Mean (SE) [7]: −89.99 (16.85) %
AAS7 = 0, Non-responder n (%) [7]: 13 (56.5) n (%)
AAS7 = 0, OR (95% CI) for rilzabrutinib vs. placebo [7]: 1.627
AAS7 = 0, RRD (%) for rilzabrutinib vs. placebo (95% CI) [7]: 11.0 %
AAS7 Post-baseline Mean (SD) [7]: 6.83 (9.73)
Participants with AAS7 = 0, Responder n (%) [7]: 10 (43.5) n (%)
AAS7 % Change difference for rilzabrutinib vs. placebo LS Mean (95% CI) [8]: −15.53 (−43.68, 12.62) %
AAS7 Change difference for rilzabrutinib vs. placebo LS Mean (95% CI) [8]: −6.88 (−18.42, 4.67)
AAS7 Change from baseline LS Mean (SE) [8]: −40.74 (4.34)
AAS7 Post-baseline Mean (SD) [8]: 9.40 (13.36)
Non-responder n (%), AAS7 = 0 [9]: 15 (44.1) n (%)
OR (95% CI) for rilzabrutinib vs. placebo, AAS7 = 0 [9]: 1.142
RRD (%) for rilzabrutinib vs. placebo (95% CI), AAS7 = 0 [9]: 3.1 %
Responder n (%), AAS7 = 0 [9]: 19 (55.9) n (%)
AAS7 = 0, Non-responder n (%) [10]: 13 (56.5) n (%)
AAS7 = 0, OR (95% CI) for rilzabrutinib vs. placebo [10]: 1.160
AAS7 = 0, RRD (%) for rilzabrutinib vs. placebo (95% CI) [10]: 3.1 %
AAS7 Post-baseline Mean (SD) [10]: 9.80 (13.81)
Participants with AAS7 = 0, Responder n (%) [10]: 10 (43.5) n (%)
AAS7 % Change difference for rilzabrutinib vs. placebo LS Mean (95% CI) [11]: −19.84 (−46.44, 6.76) %
AAS7 % Change from baseline LS Mean (SE) [11]: −82.82 (10.03) %
AAS7 Change difference for rilzabrutinib vs. placebo LS Mean (95% CI) [11]: −8.06 (−19.05, 2.94)
AAS7 Change from baseline LS Mean (SE) [11]: −43.36 (4.14)
AAS7 Post-baseline Mean (SD) [11]: 7.37 (12.64)
patients with angioedema score (AAS7) of 0 [12]: 60.9%
Non-responder n (%), AAS7 = 0 [12]: 12 (35.3) n (%)
OR (95% CI) for rilzabrutinib vs. placebo, AAS7 = 0 [12]: 1.685
RRD (%) for rilzabrutinib vs. placebo (95% CI), AAS7 = 0 [12]: 13.0 %
Responder n (%), AAS7 = 0 [12]: 22 (64.7) n (%)
AAS7 = 0, Non-responder n (%) [13]: 9 (39.1) n (%)
AAS7 = 0, OR (95% CI) for rilzabrutinib vs. placebo [13]: 3.085
AAS7 = 0, RRD (%) for rilzabrutinib vs. placebo (95% CI) [13]: 29.7 %
AAS7 Post-baseline Mean (SD) [13]: 7.10 (12.86)
Participants with AAS7 = 0, Responder n (%) [13]: 14 (60.9) n (%)
LS mean change from baseline in AAS7 at Week 12 [14]: −44.04
decrease from baseline in AAS7 at Week 12 [14]: 84.63%
patients achieving angioedema score (AAS7) of 0 (400 mg TID, within one week of initiating treatment, omalizumab-naïve): 30.4%
AAS7, Mean (SD) [15]: 30.42 (14.73)
AAS7, Median [15]: 30.42
AAS7 Change from baseline, Mean (SD) [15]: 1.50 (2.12)
AAS7 Change from baseline, Median [15]: 1.50
AAS7 Percent change from baseline, Median [15]: 8.82
AAS7, Mean (SD) [16]: 27.33 (24.01)
AAS7, Median [16]: 37.00
AAS7 Change from baseline, Mean (SD) [16]: −38.33 (25.03)
AAS7 Change from baseline, Median [16]: −37.00
AAS7 Percent change from baseline, Mean (SD) [16]: −57.91 (38.75) %
AAS7 Percent change from baseline, Median [16]: −50.00%
AAS7 Change from baseline, Mean (SD) [17]: −21.44 (18.46)
AAS7 Change from baseline, Median [17]: −22.00
AAS7 Percent change from baseline, Mean (SD) [17]: 62.04 (42.40) %
AAS7 Percent change from baseline, Median [17]: −82.71%
AAS7, Median [18]: 14.00
AAS7 Change from baseline, Mean (SD) [18]: −22.60 (18.31)
AAS7 Change from baseline, Median [18]: −23.00
AAS7 Percent change from baseline, Mean (SD) [18]: −45.07 (90.72) %
AAS7 Percent change from baseline, Median [18]: −77.03%
AAS7, Median [19]: 6.50
AAS7 Change from baseline, Mean (SD) [19]: −30.63 (24.46)
AAS7 Change from baseline, Median [19]: −25.88
AAS7 Percent change from baseline, Mean (SD) [19]: −45.93 (125.55) %
AAS7 Percent change from baseline, Median [19]: −89.45%
AAS7 Change from baseline, Mean (SD) [20]: −30.05 (20.80)
AAS7 Change from baseline, Median [20]: −28.00
AAS7 Percent change from baseline, Mean (SD) [20]: −53.69 (109.03) %
AAS7 Percent change from baseline, Median [20]: −82.09%
AAS7, Median [21]: 0.00
AAS7 Change from baseline, Mean (SD) [21]: −30.86 (24.37)
AAS7 Change from baseline, Median [21]: −24.00
AAS7 Percent change from baseline, Mean (SD) [21]: −66.40 (54.16) %
AAS7 Percent change from baseline, Median [21]: −100.00%
AAS7, Median [22]: 3.00
AAS7 Change from baseline, Mean (SD) [22]: −31.58 (23.39)
AAS7 Change from baseline, Median [22]: −24.00
AAS7 Percent change from baseline, Mean (SD) [22]: −70.72 (39.56) %
AAS7 Percent change from baseline, Median [22]: −92.19%
AAS7, Median [23]: 4.67
AAS7 Change from baseline, Mean (SD) [23]: −33.54 (24.64)
AAS7 Change from baseline, Median [23]: −30.00
AAS7 Percent change from baseline, Mean (SD) [23]: −68.05 (40.33) %
AAS7 Percent change from baseline, Median [23]: −88.60%
AAS7, Median [24]: 0.00
AAS7 Change from baseline, Mean (SD) [24]: −36.21 (24.67)
AAS7 Change from baseline, Median [24]: −32.00
AAS7 Percent change from baseline, Mean (SD) [24]: −74.90 (43.31) %
AAS7 Percent change from baseline, Median [24]: −100.00%
AAS7, Median [25]: 0.00
AAS7 Change from baseline, Mean (SD) [25]: −34.83 (26.07)
AAS7 Change from baseline, Median [25]: −32.00
AAS7 Percent change from baseline, Mean (SD) [25]: −67.10 (66.88) %
AAS7 Percent change from baseline, Median [25]: −100.00%
